Among the data in patent publication US7524860B2, “Antibacterial agents” (Pfizer Inc., priority 2004, dated 2009) are MIC values, retold here.

In brackets after ≈: the same amount, converted by molar mass.

For the test, the system named is Neisseria gonorrhoeae, GC525 (NG-2888). Kind of test: in-vitro antibacterial activity, microbroth dilution MIC susceptibility testing. In kind it is cell-based. To be noted: Neisseria gonorrhoeae, microbroth dilution in gonococcal broth, 20-24 hours at 35 C, lowest concentration preventing visible growth, read-out: MIC. How it is done:
The in-vitro antibacterial activity of selected compounds was determined against a stain of Neisseria gonorrhoeae, GC525 (NG-2888), which is described by Rouquette-Loughlin et al, in Journal of Bacteriology, February 2003, p. 1101-1106, at p. 1103. In general, minimum inhibitory concentration (MIC) susceptibility testing followed procedures recommended by the National Committee for Clinical Laboratory Standards (NCCLS^1-2) or followed the descriptions described below:
Neisseria gonorrhoeae strains were grown on Chocolate Agar II plates (BBL—Becton Dickinson Microbiology Systems, Cockeysville, Md.) and incubated at 35° C. in a humidified 5% CO2 incubator (Form a Scientific, Marietta Ohio). For microbroth dilution MIC testing, N. gonorrhoeae were tested in gonococcal broth (GCB):
Gram stains were also utilized. Permanent Stock Culture Collection
Bacterial stock cultures are stored as frozen suspensions at −70 C. N. gonorrhoeae cultures are suspended in inactivated Horse Serum (Colorado Serum Company, Denver, Colo.) containing 7.5% glucose prior to snap freezing in a dry ice/ethanol bath.
Preparation of Standardized Test Inocula and Plate Inoculation
Frozen stock cultures were used as the initial source of organisms for performing microbroth dilution MIC testing. Stock cultures were passed on their respective growth medium at least one growth cycle (18-24 hours) prior to their use. Bacterial culture suspensions were prepared directly from Chocolate Agar II plates into 10 mL cation-adjusted Mueller-Hinton Broth (CAMHB, BBL, # BB215069). Before use, cultures were adjusted to an optical density value of 1.6-2 on a Perkin-Elmer Lambda EZ150 Spectrophotometer (Wellesley, Mass.) set at a wavelength of 600 nm. Random cultures were plated for validation of actual colony counts. The adjusted cultures were diluted 400-fold (0.25 mL inoculum+100 mL GCB) into gonococcal broth producing a starting inoculum of approximately 5×10^5 cfu/mL. These cultures were inoculated into test plates (100 uL/well) using a Biomek® FX workstation (Beckman Coulter Inc., Fullerton, Calif.). The inoculated plates were placed in stacks of no more than 4 and covered with an empty plate. Plates were incubated for 20-24 hours at 35 C in a humidified CO2 incubator.
Test Compound (“Drug”) Preparation
Drug stock solutions (2 mg/mL in DMSO) were prepared on the day of testing. Drugs were weight corrected for assay content where necessary.
Drug Dilution Tray Preparation
Microbroth dilution stock plates were prepared in two dilution series, 64-0.06 ug drug/mL and 1-0.001 ug drug/mL. For the high concentration series, 200 uL of stock solution (2 mg/mL) was added to duplicate rows of a 96-well plate. This was used as the first well in the dilution series. Serial two-fold decremental dilutions were made using a BioMek FX robot (Beckman Coulter Inc., Fullerton, Calif.) with 10 of the remaining 11 wells, each of which contained 100 uL of the appropriate solvent/diluent. Row 12 contained solvent/diluent only and served as the control. For tube one of the low concentration series, 200 uL of a 31.25 ug/mL stock was added to duplicate rows of a 96-well plate. Serial two-fold dilutions were made as described above.
Daughter plates were spotted (3.2 uL/well) from the stock plates listed above using the BioMek FX robot and were inoculated with organism (100 uL/well) as described previously.
After incubation, the degree of growth in each well was read visually with the aid of a Test Reading Mirror (Dynatech Lab 220-16, Dynex Technologies, Chantilly, Va.). 96-well test plates are read in a darkened room with a single light shining from above. The MIC is the lowest concentration of drug that prevents macroscopically visible growth under the conditions of the test. […] If MIC values in duplicate tests differ by 1 well (two-fold), the […] value is reported. If duplicate tests vary by 2 dilutions (four-fold), the middle value is reported.
A general note: In broth dilution the organism is exposed to a series of concentrations in liquid medium.
The MIC is the lowest concentration found to suppress growth. In the case of `CCNC(=O)Nc1nc2cc(-c3cccnc3)cc(C(=O)NC3CCN(C(C)C)CC3)n2n1` [Example 41, 2-(3-Ethyl-ureido)-7-pyridin-3-yl-[1,2,4]triazolo[1,5-a]pyridine-5-carboxylic acid (1-isopropyl-piperidin-4-yl)-amide], the minimum inhibitory concentration (MIC) was 16 µg/mL (≈ 35.5 µM). Turning to `CCNC(=O)Nc1nc2cc(-c3cccnc3)cc(C(=O)N[C@@H](C)c3ccccc3)n2n1` [Example 42, (S)-2-(3-Ethyl-ureido)-7-pyridin-3-yl-[1,2,4]triazolo[1,5-a]pyridine-5-carboxylic acid(1-phenyl-ethyl)-amide], the MIC came to 8 µg/mL (≈ 18.6 µM). The same measure for `CCNC(=O)Nc1nc2cc(-c3cccnc3)cc(C(=O)NCC(C)(C)C)n2n1` [Example 43, 2-(3-Ethyl-ureido)-7-pyridin-3-yl-[1,2,4]triazolo[1,5-a]pyridine-5-carboxylic acid (2,2-dimethyl-propyl)-amide]: over 64 µg/mL. As for `CCNC(=O)Nc1nc2cc(-c3cccnc3)cc(C(=O)NC3CCOC3)n2n1` (stereo not shown) [Example 45, 2-(3-Ethyl-ureido)-7-pyridin-3-yl-[1,2,4]triazolo[1,5-a]pyridine-5-carboxylic acid (tetrahydro-furan-3-yl)-amide], the MIC is over 64 µg/mL.

Take `CCNC(=O)Nc1nc2cc(-c3cccnc3)cc(C(=O)NCCC3CCCN3C)n2n1` (stereo not shown) [Example 46, 2-(3-Ethyl-ureido)-7-pyridin-3-yl-[1,2,4]triazolo[1,5-a]pyridine-5-carboxylic acid [2-(1-methyl-pyrrolidin-2-yl)-ethyl]-amide]: the MIC was found to be 1 µg/mL (≈ 2.29 µM). In the case of `CCNC(=O)Nc1nc2cc(-c3cccnc3)cc(C(=O)NCCCN3CCCC3)n2n1` [Example 47, 2-(3-Ethyl-ureido)-7-pyridin-3-yl-[1,2,4]triazolo[1,5-a]pyridine-5-carboxylic acid (3-pyrrolidin-1-yl-propyl)-amide], the minimum inhibitory concentration (MIC) turned out to be 16 µg/mL (≈ 36.7 µM). As for `CCNC(=O)Nc1nc2cc(-c3cccnc3)cc(C(=O)N[C@H](C)c3ccccc3)n2n1` [Example 48, (R)-2-(3-Ethyl-ureido)-7-pyridin-3-yl-[1,2,4]triazolo[1,5-a]pyridine-5-carboxylic acid(1-phenyl-ethyl)-amide], the minimum inhibitory concentration (MIC) is 16 µg/mL (≈ 37.3 µM). Regarding `CCNC(=O)Nc1nc2cc(-c3cccnc3)cc(C(=O)N3CCC(N(CC)CC)C3)n2n1` (stereo not shown) [Example 49, 1-[5-(3-Diethylamino-pyrrolidine-1-carbonyl)-7-pyridin-3-yl-[1,2,4]triazolo[1,5-a]pyridin-2-yl]-3-ethyl-urea], the MIC is over 64 µg/mL. Take `CCNC(=O)Nc1nc2cc(-c3cccnc3)cc(C(=O)Nc3nccs3)n2n1` [Example 50, 2-(3-Ethyl-ureido)-7-pyridin-3-yl-[1,2,4]triazolo[1,5-a]pyridine-5-carboxylic acidthiazol-2-ylamide]: the minimum inhibitory concentration (MIC) was 2 µg/mL (≈ 4.9 µM). Consider `CCNC(=O)Nc1nc2cc(-c3cccnc3)cc(C(=O)N(C)Cc3nnc(C)o3)n2n1` [Example 51, 2-(3-Ethyl-ureido)-7-pyridin-3-yl-[1,2,4]triazolo[1,5-a]pyridine-5-carboxylic acid methyl-(5-methyl-[1,3,4]oxadiazol-2-ylmethyl)-amide], for which the minimal inhibitory concentration (MIC) worked out at 64 µg/mL (≈ 147 µM). For `CCNC(=O)Nc1nc2cc(-c3cccc(C)c3)cc(C(=O)NCC)n2n1` [Example 52, 2-(3-Ethyl-ureido)-7-m-tolyl-[1,2,4]triazolo[1,5-a]pyridine-5-carboxylic acid ethylamide], the MIC came out at 4 µg/mL (≈ 10.9 µM).

On to `CCNC(=O)Nc1nc2cc(-c3ccc(F)c(C)c3)cc(C(=O)NCC)n2n1` [Example 53, 2-(3-Ethyl-ureido)-7-(4-fluoro-3-methyl-phenyl)-[1,2,4]triazolo[1,5-a]pyridine-5-carboxylic acid ethylamide], for which the minimal inhibitory concentration (MIC) is 16 µg/mL (≈ 41.6 µM). With `CCNC(=O)Nc1nc2cc(-c3ccccc3OC)cc(C(=O)NCC)n2n1` [Example 54, 2-(3-Ethyl-ureido)-7-(2-methoxy-phenyl)-[1,2,4]triazolo[1,5-a]pyridine-5-carboxylic acid ethylamide], the MIC is over 64 µg/mL.
